What was measured:
SP1 = target: T1, SP1 (Mus musculus, UniProt O89090); experiment: Oral tolfenamic acid in mice, Western blot of SP1 in brain; assay type: in vivo, mice (C57BL/6); conditions: oral gavage 10 or 50 mg/Kg in corn oil on alternate days, Western blot (FIG. 6A)
T1 construct: various brain regions were isolated and stored at −70° C; from tissue; host or cells: brain of adult C57BL/6 mice
Experimental: (§1) The Oral Administration of Tolfenamic acid to mice lowers SP1, APP, and Aβ levels in the brain (See FIG. 6). Mice were dosed on alternate days by oral gavage with 10 or 50 mg/Kg of tolfenamic acid in corn oil or vehicle alone. Tolfenamic acid (TFA) lowered APP levels by about 50% and Aβ by about 20%. […] FIG. 6A is a representative Western blot of SP1. FIG. 6B is a Western blot analysis of APP expressed as a ratio of a housekeeping gene, FIG. 6C is Aβ analysis by ELISA. Each bar represents the mean of data obtained from 6-9 animals. Data from both doses was combined after statistical analysis. Values marked with an ‘*’ are statistically significant, p<0.0.5.
Animal Exposure: Adult mice (C57BL/6) were obtained from Jackson labs (Maine). They were divided into 2 groups viz., Con (C), drug treated (D). The drug, toelfenamic acid was dissolved in corn oil and administered at various concentrations from 10 mg/Kg to 100 mg/Kg in corn oil by oral gavage. Control mice were dosed with corn oil only. Treatment was given on alternate days for one month. At the end of the exposure period the animals were decapitated following exposure to CO2 and hypothermia and various brain regions were isolated and stored at −70° C. This protocol has been approved by the IACUC of the University of Rhode Island. […]

APP = experiment: Oral tolfenamic acid in mice, Western blot analysis of APP in brain; assay type: in vivo, mice (C57BL/6); conditions: oral gavage 10 or 50 mg/Kg in corn oil on alternate days, ratio to housekeeping gene, both doses combined (FIG. 6B)
Experimental: as §1, with “p<0.0.5. Animal Exposure: Adult mice (C57BL/6) were obtained from Jackson labs (Maine). They were divided into 2 groups viz., Con (C), drug treated (D). The drug, toelfenamic acid was dissolved in corn oil and administered at various concentrations from 10 mg/Kg to 100 mg/Kg in corn oil by oral gavage. Control mice were dosed with corn oil only. Treatment was given on alternate days for one month. At the end of the exposure period the animals were decapitated following exposure to CO2 and hypothermia and various brain regions were isolated and stored at −70° C. This protocol has been approved by the IACUC of the University of Rhode Island. […]” for “p<0.0.5.”

Aβ = experiment: Oral tolfenamic acid in mice, Aβ analysis by ELISA in brain; assay type: in vivo, mice (C57BL/6); conditions: oral gavage 10 or 50 mg/Kg in corn oil on alternate days, both doses combined (FIG. 6C)
Experimental: The Oral Administration of Tolfenamic acid to mice lowers SP1, APP, and Aβ levels in the brain (See FIG. 6). Mice were dosed on alternate days by oral gavage with 10 or 50 mg/Kg of tolfenamic acid in corn oil or vehicle alone. Tolfenamic acid (TFA) lowered APP levels by about 50% and Aβ by about 20%. […] FIG. 6A is a representative Western blot of SP1. FIG. 6B is a Western blot analysis of APP expressed as a ratio of a housekeeping gene, FIG. 6C is Aβ analysis by ELISA. Each bar represents the mean of data obtained from 6-9 animals. Data from both doses was combined after statistical analysis. Values marked with an ‘*’ are statistically significant, p<0.0.5. Animal Exposure: Adult mice (C57BL/6) were obtained from Jackson labs (Maine). They were divided into 2 groups viz., Con (C), drug treated (D). The drug, toelfenamic acid was dissolved in corn oil and administered at various concentrations from 10 mg/Kg to 100 mg/Kg in corn oil by oral gavage. Control mice were dosed with corn oil only. Treatment was given on alternate days for one month. […] ELISA Assays: Aβ-40 and Aβ-42 levels were measured using a combination of monoclonal antibody (mAb) 6E10 (specific to an epitope present on 1-16 amino acid residues of Aβ) and R162, and R164 respectively in a double-antibody sandwich ELISA (Mehta et al., 1998; Morishima-Kawashima et al., 2000; Basha et al., 2005).

Sp1, Sp3 and Sp4 = conditions: pancreatic cancer cells and tumors; background statement; cited from earlier work

T1 sequence (O89090 whole entry): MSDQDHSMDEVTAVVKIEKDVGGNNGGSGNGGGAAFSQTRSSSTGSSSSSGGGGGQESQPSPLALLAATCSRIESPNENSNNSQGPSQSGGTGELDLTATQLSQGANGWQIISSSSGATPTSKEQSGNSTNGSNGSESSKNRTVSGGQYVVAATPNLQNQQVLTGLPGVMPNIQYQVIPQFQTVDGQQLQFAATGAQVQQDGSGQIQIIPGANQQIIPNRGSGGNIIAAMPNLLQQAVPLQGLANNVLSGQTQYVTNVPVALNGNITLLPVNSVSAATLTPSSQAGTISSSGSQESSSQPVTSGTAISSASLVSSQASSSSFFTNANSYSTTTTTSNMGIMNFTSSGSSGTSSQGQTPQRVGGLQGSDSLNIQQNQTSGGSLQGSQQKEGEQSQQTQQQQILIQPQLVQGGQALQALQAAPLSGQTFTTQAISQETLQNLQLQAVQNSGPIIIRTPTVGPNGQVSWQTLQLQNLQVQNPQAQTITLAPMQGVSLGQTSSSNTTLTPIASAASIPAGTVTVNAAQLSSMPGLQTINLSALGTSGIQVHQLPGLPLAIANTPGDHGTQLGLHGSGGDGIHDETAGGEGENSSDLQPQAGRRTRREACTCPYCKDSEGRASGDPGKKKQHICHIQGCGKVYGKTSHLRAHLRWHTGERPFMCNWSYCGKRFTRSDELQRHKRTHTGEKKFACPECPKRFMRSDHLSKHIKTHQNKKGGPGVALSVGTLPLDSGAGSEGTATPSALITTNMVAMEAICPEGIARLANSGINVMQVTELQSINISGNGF

Q: For Cc1c(Cl)cccc1Nc1ccccc1C(=O)O [Tolfenamic acid], which “SP1 levels in the brain” value (SP1) is on record?
A: The value was “lowers”.

Q: What about the “lowering of APP levels” value (APP) of the same molecule?
A: Its value is “about 50%”.

Q: What about the “lowering of Aβ levels” value (Aβ) of the same molecule?
A: Its value is “about 20%”.

Q: What about the “degradation of Sp1, Sp3 and Sp4” value (Sp1, Sp3 and Sp4) of the same molecule?
A: Its value is “can induce proteasome-dependent degradation of Sp1, Sp3 and Sp4”.
